From the supplement of paper PMC10307832

Experiments:
Test in all cases: relative viability (nuclei count vs DMSO), 5 days (fraction); higher = more cells survive
[1] = compound: CCC1=CN=CN=C1N2CCN(CC2)CC3=NC4=C(N3)C=C(C=C4)C(F)(F)F + NC(=O)Nc1cc(-c2cccc(F)c2)sc1C(=O)N[C@H]1CCCNC1 [AZD7762] (partner 0.2 µM)
Outline: (§1)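 Values are medians from duplicate plates. Each reflects relative viability, defined as the nuclei count of treated wells over that of vehicle wells. Lung cancer cell lines in 1536-well plates were pin-tool dosed one day after seeding with one drug alone or with a fixed anchor-drug dose plus five library-drug doses (not always all listed) in √10 steps, then fixed, stained and imaged at 4× after 5 days.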

[2] = compound: CCn1c(-c2nonc2N)nc2cnc(Oc3cccc(NC(=O)c4ccc(OCCN5CCOCC5)cc4)c3)cc21 + CC(=O)c1c(C)c2cnc(Nc3ccc(N4CCNCC4)cn3)nc2n(C2CCCC2)c1=O [Palbociclib] (partner 0.5 µM)
Outline: as §1

[3] = compound: CCn1c(-c2nonc2N)nc2cnc(Oc3cccc(NC(=O)c4ccc(OCCN5CCOCC5)cc4)c3)cc21 + C[C@]1(O)C[C@@H](c2nc(-c3ccc4ccc(-c5ccccc5)nc4c3)c3c(N)nccn32)C1 [Linsitinib] (partner 1 µM)
Outline: as §1

Mirin + Palbociclib = compound: N=C1NC(=O)/C(=C/c2ccc(O)cc2)S1 [Mirin] + CC(=O)c1c(C)c2cnc(Nc3ccc(N4CCNCC4)cn3)nc2n(C2CCCC2)c1=O [Palbociclib] (partner 0.5 µM)
Outline: as §1

Cell Line | relative viability ([1]; first compound 0.04 µM) | relative viability ([1]; first compound 0.1265 µM) | relative viability ([1]; first compound 0.4 µM) | relative viability ([1]; first compound 1.265 µM) | relative viability ([1]; first compound 4 µM) | relative viability ([2]; first compound 0.04 µM) | relative viability ([2]; first compound 0.1265 µM) | relative viability ([2]; first compound 0.4 µM) | relative viability ([2]; first compound 1.265 µM) | relative viability ([2]; first compound 4 µM) | relative viability ([3]; first compound 0.04 µM) | relative viability ([3]; first compound 0.1265 µM) | relative viability ([3]; first compound 0.4 µM) | relative viability ([3]; first compound 1.265 µM) | relative viability ([3]; first compound 4 µM) | relative viability (Mirin + Palbociclib; first compound 0.25 µM) | relative viability (Mirin + Palbociclib; first compound 0.7906 µM) | relative viability (Mirin + Palbociclib; first compound 2.5 µM) | relative viability (Mirin + Palbociclib; first compound 7.906 µM) | relative viability (Mirin + Palbociclib; first compound 25 µM)
201T | 0.64 | 0.581 | 0.511 | 0.585 | 0.681 | 0.359 | 0.366 | 0.368 | 0.354 | 0.345 | 1.01 | 1.05 | 1.03 | 1.03 | 1.1 | 0.365 | 0.413 | 0.353 | 0.348 | 0.395
A549 |  |  |  |  |  |  |  |  |  |  | 0.726 | 0.662 | 0.733 | 0.178 | 0.319 |  |  |  |  | 
A-427 | 0.735 | 0.788 | 0.631 | 0.641 | 0.785 | 0.46 | 0.495 | 0.412 | 0.283 | 0.275 | 1.2 | 1.16 | 1.15 | 1.06 | 1.06 | 0.494 | 0.5 | 0.552 | 0.516 | 0.504
ABC-1 | 0.766 | 0.906 | 0.702 | 0.956 | 0.869 | 0.647 | 0.941 | 0.635 | 0.332 | 0.393 | 1.15 | 0.906 | 0.687 | 0.574 | 0.5 | 0.548 | 0.693 | 0.573 | 0.728 | 0.482
BEN | 0.573 | 0.57 | 0.614 | 0.611 | 0.578 | 0.473 | 0.469 | 0.472 | 0.77 | 0.441 | 0.931 | 0.935 | 0.799 | 0.311 | 0.313 | 0.485 | 0.468 | 0.423 | 0.424 | 0.426
